From patent US20230085307A1, “PYRIDAZINONE COMPOUND AND HERBICIDE” (NISSAN CHEMICAL CORPORATION, priority 2019, published 2023)

What was measured:
Details in all cases: foliage application, 320 g/ha
southern crabgrass = test: Test Example 5: herbicidal effect by foliage application, plastic box (Table 20, symbol F); format: in vivo, southern crabgrass (Digitaria ciliaris)
In short: (§1)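 Foliar spray test: emulsion formulation diluted in water to a set application rate, sprayed onto 14-day-old plants raised in diluvial soil at 25° C to 30° C under glass. Both herbicidal effect and crop effect rated visually three weeks later.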

green foxtail = test: Test Example 5: herbicidal effect by foliage application, plastic box (Table 20, symbol G); format: in vivo, green foxtail (Setaria viridis)
In short: as §1

barnyard grass = test: Test Example 5: herbicidal effect by foliage application, plastic box (Table 20, symbol H); format: in vivo, barnyard grass (Echinochloa crus-galli)
In short: as §1

wild oat = test: Test Example 5: herbicidal effect by foliage application, plastic box (Table 20, symbol I); format: in vivo, wild oat (Avena fatua)
In short: as §1

blackgrass = test: Test Example 5: herbicidal effect by foliage application, plastic box (Table 20, symbol J); format: in vivo, blackgrass (Alopecurus myosuroides)
In short: as §1

Italian ryegrass = test: Test Example 5: herbicidal effect by foliage application, plastic box (Table 20, symbol K); format: in vivo, Italian ryegrass (Lolium multiflorum)
In short: as §1

windgrass = test: Test Example 5: herbicidal effect by foliage application, plastic box (Table 20, symbol L); format: in vivo, windgrass (Apera spica-venti)
In short: as §1

velvetleaf = test: Test Example 5: herbicidal effect by foliage application, plastic box (Table 20, symbol M); format: in vivo, velvetleaf (Abutilon theophrasti)
In short: as §1

redroot pigweed = test: Test Example 5: herbicidal effect by foliage application, plastic box (Table 20, symbol N); format: in vivo, redroot pigweed (Amaranthus retroflexus)
In short: as §1

lambsquarters = test: Test Example 5: herbicidal effect by foliage application, plastic box (Table 20, symbol O); format: in vivo, lambsquarters (Chenopodium album)
In short: as §1

chickweed = test: Test Example 5: herbicidal effect by foliage application, plastic box (Table 20, symbol P); format: in vivo, common chickweed (Stellaria media)
In short: as §1

false cleavers = test: Test Example 5: herbicidal effect by foliage application, plastic box (Table 20, symbol Q); format: in vivo, false cleavers (Galium spurium)
Excerpt: [Test Example 5] Herbicidal Effect Test by Foliage Application
Sterilized diluvial soil was placed in a plastic box having a length of 21 cm, a width of 13 cm, and a depth of 7 cm. The seeds of each of southern crabgrass, green foxtail, barnyard grass, wild oat, blackgrass, Italian ryegrass, windgrass, velvetleaf, redroot pigweed, lambsquarters, chickweed, false cleavers, persian speedwell, corn, soybean, rice, wheat, beet, and rapeseed were sowed in a spot-like manner and covered with the soil having a thickness of about 1.5 cm. Thereafter, the plants were grown in a greenhouse at 25° C. to 30° C. After 14-day growth of the plants, the emulsion agent of the compound of the present invention prepared according to Formulation Example 2 was diluted with water so as to achieve a predetermined herbicide amount, and the diluted emulsion agent was uniformly applied to a foliage part with a small-sized spray. Three weeks after the herbicide application, the effect of the herbicide on each plant was evaluated according to the criteria of Test Example 1.

persian speedwell = test: Test Example 5: herbicidal effect by foliage application, plastic box (Table 20, symbol R); format: in vivo, Persian speedwell (Veronica persica)
In short: as §1

[1] = evaluated three weeks after application

## COc1cc(F)ccc1-c1sc2ccc(-c3ccc(OC(C)C)cc3)cc2c1-c1c(O)c(C)nn(C)c1=O [2-167]
Southern crabgrass; [1]
  herbicidal effect on F: southern crabgrass (criteria 0-5): 0 (Herbicidal rate of 5% or less (almost no effect))
Green foxtail; [1]
  herbicidal effect on G: green foxtail (criteria 0-5): 0 (Herbicidal rate of 5% or less (almost no effect))
Barnyard grass; [1]
  herbicidal effect on H: barnyard grass (criteria 0-5): 0 (Herbicidal rate of 5% or less (almost no effect))
Wild oat; [1]
  herbicidal effect on I: wild oat (criteria 0-5): 0 (Herbicidal rate of 5% or less (almost no effect))
blackgrass; [1]
  herbicidal effect on J: blackgrass (criteria 0-5): 0 (Herbicidal rate of 5% or less (almost no effect))
Italian ryegrass; [1]
  herbicidal effect on K: Italian ryegrass (criteria 0-5): 0 (Herbicidal rate of 5% or less (almost no effect))
windgrass; [1]
  herbicidal effect on L: windgrass (criteria 0-5): 0 (Herbicidal rate of 5% or less (almost no effect))
velvetleaf; [1]
  herbicidal effect on M: velvetleaf (criteria 0-5): 0 (Herbicidal rate of 5% or less (almost no effect))
Redroot pigweed; [1]
  herbicidal effect on N: redroot pigweed (criteria 0-5): 3 (Herbicidal rate of 40% or more and less than 70%)
lambsquarters; [1]
  herbicidal effect on O: lambsquarters (criteria 0-5): 0 (Herbicidal rate of 5% or less (almost no effect))
chickweed; [1]
  herbicidal effect on P: chickweed (criteria 0-5): 0 (Herbicidal rate of 5% or less (almost no effect))
False cleavers; [1]
  herbicidal effect on Q: false cleavers (criteria 0-5): 0 (Herbicidal rate of 5% or less (almost no effect))
Persian speedwell; [1]
  herbicidal effect on R: persian speedwell (criteria 0-5): 0 (Herbicidal rate of 5% or less (almost no effect))

## CCCC(=O)Oc1c(C)nn(C)c(=O)c1-c1c(-c2ccc(OC)cc2)sc2cc(C)ccc12 [3-052]
Southern crabgrass; three weeks after application
  F: southern crabgrass, herbicidal effect grade: 0 (Herbicidal rate of 5% or less (almost no effect))
Green foxtail; three weeks after application
  G: green foxtail, herbicidal effect grade: 3 (Herbicidal rate of 40% or more and less than 70%)
Barnyard grass; three weeks after application
  H: barnyard grass, herbicidal effect grade: 0 (Herbicidal rate of 5% or less (almost no effect))
Wild oat; three weeks after application
  I: wild oat, herbicidal effect grade: 0 (Herbicidal rate of 5% or less (almost no effect))
blackgrass; three weeks after application
  J: blackgrass, herbicidal effect grade: 0 (Herbicidal rate of 5% or less (almost no effect))
Italian ryegrass; three weeks after application
  K: Italian ryegrass, herbicidal effect grade: 0 (Herbicidal rate of 5% or less (almost no effect))
windgrass; three weeks after application
  L: windgrass, herbicidal effect grade: 0 (Herbicidal rate of 5% or less (almost no effect))
velvetleaf; three weeks after application
  M: velvetleaf, herbicidal effect grade: 3 (Herbicidal rate of 40% or more and less than 70%)
Redroot pigweed; three weeks after application
  N: redroot pigweed, herbicidal effect grade: 0 (Herbicidal rate of 5% or less (almost no effect))
lambsquarters; three weeks after application
  O: lambsquarters, herbicidal effect grade: 0 (Herbicidal rate of 5% or less (almost no effect))
chickweed; three weeks after application
  P: chickweed, herbicidal effect grade: 5 (Herbicidal rate of 90% or more (almost completely withered))
False cleavers; three weeks after application
  Q: false cleavers, herbicidal effect grade: 2 (Herbicidal rate of 20% or more and less than 40%)
Persian speedwell; three weeks after application
  R: persian speedwell, herbicidal effect grade: 5 (Herbicidal rate of 90% or more (almost completely withered))
